“Also recorded” adds a separate entry of the source. Read-outs that look alike come from different tables or passages of the source.
Assays:
[1] = tested on: CYP3A; settings: concomitant administration; cited from earlier work
[2] = tested on: CYP1A2, CYP2B6, CYP2C8, CYP2C9, CYP3A4 and UGT1A1; settings: cited from earlier work
[3] = target: CYP3A4 (Homo sapiens, UniProt P08684); settings: cited from earlier work
[4] = tested on: CYP2B6, CYP2C9 and CYP3A4; settings: human primary hepatocytes; cited from earlier work
[5] = tested on: P-gp and BCRP; settings: in vitro; cited from earlier work
[6] = tested on: CYP3A4, CYP2C19, and CYP2D6; settings: in vitro, cited from earlier work
[7] = cited from earlier work; for dose absorbed: human
[8] = tested on: P-gp, BCRP, OATP1B1, OATP1B3, OAT1, OAT3 and OCT2; settings: in vitro, cited from earlier work
[9] = tested on: BRAF-mutated pancreatic cancer; assay: Response and progression-free survival on BRAF/MEK/ERK-directed therapy, retrospective clinical case series; format: in vivo, human; settings: patients with fusion abnormalities, single agent trametinib
Text: Each horizontal bar represents the time on therapy without disease progression (i.e. progression-free survival). […] Bars capped with arrows indicate lines of therapy that were continuing as of the last available progress note (censored event).
Individual patient charts were retrospectively reviewed, and clinical information was extracted.
Demographic, clinical descriptors, and outcomes data were collected under institution-specific IRB-approved protocols for each individual site. The data from each site was de-identified before being shared in a HIPAA-compliant database.
Demographic data, date of diagnosis, staging information, treatment history, and response to therapy were collected from all participating sites. Overall survival (OS) was calculated from the time of the patient's diagnosis of advanced PC (i.e. the date of recurrence following surgical resection or the date of initial diagnosis in the context of metastatic or unresectable disease) until death (survival event) or last follow-up (censored event). […] Progression-free survival (PFS) was calculated from the time of initiation of a therapy until discontinuation due to disease progression (survival event), cessation due to tolerability issues (censored event), or the last follow-up (censored event).
All survival analysis methods were implemented in an R/Bioconductor programming environment. […]

[10] = tested on: BRAF ΔNVTAP deletion; settings: patients with ΔNVTAP deletion, clinical case reports; cited from earlier work
[11] = target: BRAF N486_P490del (delta-NVTAP) (Homo sapiens, UniProt P15056, DEL486-490); settings: experimentally, PMID: 26996308; cited from earlier work
Chain of BRAF N486_P490del (delta-NVTAP) (P15056 with tags, fused parts or gaps DEL486-490): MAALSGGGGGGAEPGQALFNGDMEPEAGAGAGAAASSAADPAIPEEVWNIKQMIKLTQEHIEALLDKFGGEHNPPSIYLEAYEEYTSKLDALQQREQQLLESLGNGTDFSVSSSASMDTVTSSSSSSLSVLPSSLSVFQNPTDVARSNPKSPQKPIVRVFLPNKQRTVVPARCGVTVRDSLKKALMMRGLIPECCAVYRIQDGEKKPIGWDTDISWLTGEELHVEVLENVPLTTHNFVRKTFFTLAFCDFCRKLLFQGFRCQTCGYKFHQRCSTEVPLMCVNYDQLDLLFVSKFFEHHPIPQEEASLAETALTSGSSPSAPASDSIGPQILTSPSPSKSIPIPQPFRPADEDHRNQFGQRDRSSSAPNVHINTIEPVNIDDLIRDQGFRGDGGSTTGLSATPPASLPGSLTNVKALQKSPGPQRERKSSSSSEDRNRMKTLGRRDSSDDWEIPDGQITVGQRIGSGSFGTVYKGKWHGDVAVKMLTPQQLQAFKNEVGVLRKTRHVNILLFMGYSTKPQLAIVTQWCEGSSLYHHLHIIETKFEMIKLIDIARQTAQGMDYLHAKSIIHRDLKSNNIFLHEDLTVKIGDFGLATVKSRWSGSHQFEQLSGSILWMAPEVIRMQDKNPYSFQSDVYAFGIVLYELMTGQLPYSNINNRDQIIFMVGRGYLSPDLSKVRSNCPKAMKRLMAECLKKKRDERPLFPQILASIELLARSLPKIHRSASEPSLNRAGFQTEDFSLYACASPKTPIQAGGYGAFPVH

[12] = target: T1, UGT1A1 (Homo sapiens, UniProt P22309); settings: cited from earlier work
T1 sequence (P22309 26-533): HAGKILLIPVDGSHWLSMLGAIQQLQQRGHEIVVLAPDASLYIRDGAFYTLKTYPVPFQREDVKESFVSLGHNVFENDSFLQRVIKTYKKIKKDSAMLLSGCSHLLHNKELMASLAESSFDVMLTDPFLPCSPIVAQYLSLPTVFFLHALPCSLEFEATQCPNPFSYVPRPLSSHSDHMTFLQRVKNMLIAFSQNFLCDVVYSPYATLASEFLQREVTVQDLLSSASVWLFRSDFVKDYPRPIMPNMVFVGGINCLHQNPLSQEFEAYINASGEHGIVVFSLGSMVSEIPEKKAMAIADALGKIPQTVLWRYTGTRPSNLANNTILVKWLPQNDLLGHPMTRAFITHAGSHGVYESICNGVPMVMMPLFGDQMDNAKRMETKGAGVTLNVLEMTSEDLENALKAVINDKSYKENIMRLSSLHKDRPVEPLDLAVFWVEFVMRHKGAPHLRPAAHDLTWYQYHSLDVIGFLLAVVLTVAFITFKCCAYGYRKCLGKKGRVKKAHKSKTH

[13] = humans; cited from earlier work
[14] = tested on: CYP1A2 and CYP2C19; settings: metabolic pathway contribution; cited from earlier work
[15] = in vivo; cited from earlier work

Chain of CYP3A4 (P08684 whole entry): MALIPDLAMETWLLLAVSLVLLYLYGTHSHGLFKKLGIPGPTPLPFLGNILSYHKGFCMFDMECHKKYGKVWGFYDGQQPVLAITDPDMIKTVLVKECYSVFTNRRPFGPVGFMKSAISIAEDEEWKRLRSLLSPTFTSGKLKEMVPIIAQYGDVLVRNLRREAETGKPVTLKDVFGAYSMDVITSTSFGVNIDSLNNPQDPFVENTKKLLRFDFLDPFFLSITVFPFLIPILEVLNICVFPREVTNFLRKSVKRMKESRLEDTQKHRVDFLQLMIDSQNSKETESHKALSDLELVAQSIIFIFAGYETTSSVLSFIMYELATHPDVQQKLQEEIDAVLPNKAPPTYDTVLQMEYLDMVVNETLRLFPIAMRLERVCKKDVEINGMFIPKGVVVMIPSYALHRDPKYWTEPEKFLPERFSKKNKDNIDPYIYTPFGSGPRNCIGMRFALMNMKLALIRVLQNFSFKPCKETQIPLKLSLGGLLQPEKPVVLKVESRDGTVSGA

## COC(=O)N[C@@H](C)CNc1nccc(-c2cn(C(C)C)nc2-c2cc(Cl)cc(NS(C)(=O)=O)c2F)n1 [Encorafenib]
[1]
  effect of strong or moderate CYP3A inhibitors on exposure: may increase encorafenib plasma concentration
[2]
  reversible enzyme inhibition: reversible inhibitor of CYP1A2, CYP2B6, CYP2C8, CYP2C9, CYP3A4 and UGT1A1
[3]
  time-dependent enzyme inhibition: time-dependent inhibitor of CYP3A4
[4]
  enzyme induction: induced CYP2B6, CYP2C9 and CYP3A4
[5]
  transporter substrate: substrate of the transporter P-gp
[6]
  metabolising enzymes and pathway: metabolized by CYP3A4 and to a lesser extent by CYP2C19; also recorded: N-dealkylation is the primary metabolic pathway; CYP3A4 (primary), CYP2C19, and CYP2D6 (minor) contribute to total oxidative clearance in human liver microsomes
[6]; listed as encorafenib
  metabolising enzymes and pathway: mainly metabolized by CYP3A
[7]
  dose absorbed: At least 86%
[7]; in vivo
  excretion, feces: 39%
  excretion, urine: 47.2%
[8]
  transporter inhibition: potent inhibitor of the renal transporters, OAT1, OAT3 and OCT2, and the hepatic transporters OATP1B1 and OATP1B3
[8]; listed as encorafenib
  transporter inhibition: can potentially inhibit the transporters P-gp, BCRP, OATP1B1, OATP1B3, OAT1, OAT3 and OCT2 at clinical concentrations

## CC(=O)Nc1cccc(-n2c(=O)n(C3CC3)c(=O)c3c(Nc4ccc(I)cc4F)n(C)c(=O)c(C)c32)c1 [trametinib]
[9]
  patients having disease control: 4/6

## CC(C)(C)c1nc(-c2cccc(NS(=O)(=O)c3c(F)cccc3F)c2F)c(-c2ccnc(N)n2)s1 [dabrafenib]
[10]
  clinical activity: significant activity
[11]
  Implications for BRAF Inhibitors: dabrafenib sensitivity: sensitive;

## Cn1cnc2c(F)c(Nc3ccc(Br)cc3F)c(C(=O)NOCCO)cc21 [Binimetinib]
[12]; in vitro
  primary route of metabolism: primarily metabolized by glucuronidation through UGT1A1
[12]; metabolic pathway contribution
  glucuronidation via UGT1A1: up to 61.2%
[13]
  blood-to-plasma concentration ratio: 0.718
  bound to plasma proteins: 97.2%
[14]
  N-dealkylation via CYP1A2 and CYP2C19: up to 17.8%
[5]
  transporter substrate: substrate of P-gp and BCRP; also recorded: substrate for P-gp and BCRP
[7]
  dose absorbed: approximately 50%
[7]; in vivo
  accumulation: approximately 1.5 fold
  estimated renal clearance of unchanged drug: 6.3 % of total dose
  excretion of unchanged drug in feces: 31.7%
  excretion of unchanged drug in urine: 18.4%
  time to steady state concentrations: ≤ 15 days
[15]
  known potential toxicities, Very Common (≥10%): diarrhea, nausea, vomiting, fatigue, peripheral edema, increased AST, increased blood creatine phosphokinase, dermatitis acneiform, dry skin, pruritus, rash, decreased ejection fraction

— patent US20230060581A1, “METHOD OF TREATING PANCREATIC CANCER” (CEDARS-SINAI MEDICAL CENTER, priority 2020, published 2023)
